Legend:
TBX2 [1] = target: T1, TBX2 (Homo sapiens, UniProt Q13207); test: microscale thermophoresis; also recovered by reverse affinity chromatography with UPLC-MS; format: binding
T1 sequence (Q13207 94-287): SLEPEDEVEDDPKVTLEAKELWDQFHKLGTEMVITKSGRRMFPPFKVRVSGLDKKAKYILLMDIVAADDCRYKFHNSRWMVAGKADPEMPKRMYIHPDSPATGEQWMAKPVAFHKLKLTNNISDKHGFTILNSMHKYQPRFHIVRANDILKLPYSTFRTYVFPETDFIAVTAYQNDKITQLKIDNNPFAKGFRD

TBX2 [2] = target: T1, TBX2; test: microscale thermophoresis; format: binding

SMILES: CO[C@@H]1[C@H](O)C[C@@H](O[C@@H]2C[C@H](Oc3cc4cc5c(c(O)c4c(O)c3C)C(=O)C(O[C@H]3C[C@@H](O[C@H]4C[C@@H](O[C@H]6C[C@](C)(O)[C@@H](OC(=O)C(C)C)[C@H](C)O6)[C@H](O)[C@@H](C)O4)[C@H](O)[C@@H](C)O3)C([C@H](OC)C(=O)[C@@H](O)[C@@H](C)O)C5)O[C@H](C)[C@@H]2OC(C)=O)O[C@@H]1C (some centres unmarked) [CA5, chromomycin A5]
- Kd (TBX2 [1]): 31.3 ± 23.3 µM

SMILES: CO[C@@H]1[C@H](O)C[C@@H](O[C@@H]2C[C@H](Oc3cc4cc5c(c(O)c4c(O)c3C)C(=O)C(O[C@H]3C[C@@H](O[C@H]4C[C@@H](O[C@H]6C[C@](C)(O)[C@@H](OC(C)=O)[C@H](C)O6)[C@H](O)[C@@H](C)O4)[C@H](O)[C@@H](C)O3)C([C@H](OC)C(=O)[C@@H](O)[C@@H](C)O)C5)O[C@H](C)[C@@H]2OC(C)=O)O[C@@H]1C (some centres unmarked) [CA6, chromomycin A6]
- Kd (TBX2 [2]): 24.4 ± 13.6 µM

Source: publication PMC7062867, “Targeting the Oncogenic TBX2 Transcription Factor With Chromomycins” (Frontiers in Chemistry, 2020)
